Data on 24 compounds can be found in patent US20090247559A1 (Exelixis, Inc., priority 2007, published 2009).

pIC50: −log10 of the molar value. Read-outs that look alike come from different tables or passages of the source.

One test has as its target CDC7 (Homo sapiens, UniProt O00311). The test is described as follows: CDC7 inhibition, biochemical chemiluminescence assay (Kinase Glo, IC50 determination). How it is done: Characterization of CDC7 Inhibition in a Biochemical Chemiluminesence Assay (IC50 Determination):
The IC50 evaluation of compounds against the CDC7 enzyme was performed in a Chemiluminesence assay utilizing a Greiner 384-well white binding plate format. […] Upon addition of 10 μL of CDC-7 (GB) to the designated well plates and subsequent incubation for ten minutes at ambient temperature, 10 μL of ATP mix in Tris Base was added. Following an incubation period of 90 minutes at ambient temperature (24-27° C.), 20 μL of Kinase Glo (Promega) was added to measure kinase activity by quantitating the amount of ATP remaining in solution. The luminescence was measured following a Luciferase Protocol on either EnVision or Victor plate readers.

Test [1] concerns the target PIM (PIM-1, PIM-2, and/or PIM-3). The test is described as follows: PIM-1, PIM-2 and PIM-3 inhibition, biochemical chemiluminescence assays (Kinase Glo, IC50 determination). Conditions: Table 1 activity class; PIM refers to PIM-1, PIM-2, and/or PIM-3; read-out: PIM IC50 (Activity B). Background: Kinase-Glo reads ATP consumption through a luciferase reaction.
The next test deals with CK2 (Homo sapiens, UniProt P68400). As to the kind of experiment: CK2 inhibition, biochemical chemiluminescence holoenzyme assay (Kinase Glo, IC50 determination). The settings on record: Table 1 activity class; symbol given only if active; read-out: CK2 IC50 (Activity C). The procedure, abridged: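 Holoenzyme CK2 assay; compounds pre-incubated with substrate and enzyme, then reacted 150 min at 24-27° C. Remaining ATP measured as luminescence with Kinase Glo, and IC50 derived from the signal.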
Chain of CK2 (P68400 whole entry): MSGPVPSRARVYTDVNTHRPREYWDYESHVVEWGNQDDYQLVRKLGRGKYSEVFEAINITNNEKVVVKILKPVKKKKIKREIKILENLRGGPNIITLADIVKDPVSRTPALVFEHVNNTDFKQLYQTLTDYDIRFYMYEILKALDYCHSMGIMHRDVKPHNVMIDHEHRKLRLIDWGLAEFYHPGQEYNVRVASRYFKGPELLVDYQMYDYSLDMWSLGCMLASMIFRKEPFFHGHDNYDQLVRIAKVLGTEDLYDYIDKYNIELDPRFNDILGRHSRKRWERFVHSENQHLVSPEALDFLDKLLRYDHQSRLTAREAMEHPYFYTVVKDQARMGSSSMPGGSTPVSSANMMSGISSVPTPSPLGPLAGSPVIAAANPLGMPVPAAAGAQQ
Chain of CK2 (P67870 whole entry partner): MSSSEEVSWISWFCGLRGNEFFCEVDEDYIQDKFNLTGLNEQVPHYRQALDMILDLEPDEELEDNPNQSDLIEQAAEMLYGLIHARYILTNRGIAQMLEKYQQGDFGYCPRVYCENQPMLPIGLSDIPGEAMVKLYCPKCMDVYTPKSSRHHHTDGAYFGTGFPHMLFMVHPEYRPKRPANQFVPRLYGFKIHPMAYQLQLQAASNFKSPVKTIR

Setting [2] is: Table 1 activity class, symbol given only if active, read-out: CDC7 IC50 (Activity A).
The mark [3] stands for this setting: compounds in Table 1, read-out: CDC7 IC50 value.

Chain of CDC7 (O00311 whole entry): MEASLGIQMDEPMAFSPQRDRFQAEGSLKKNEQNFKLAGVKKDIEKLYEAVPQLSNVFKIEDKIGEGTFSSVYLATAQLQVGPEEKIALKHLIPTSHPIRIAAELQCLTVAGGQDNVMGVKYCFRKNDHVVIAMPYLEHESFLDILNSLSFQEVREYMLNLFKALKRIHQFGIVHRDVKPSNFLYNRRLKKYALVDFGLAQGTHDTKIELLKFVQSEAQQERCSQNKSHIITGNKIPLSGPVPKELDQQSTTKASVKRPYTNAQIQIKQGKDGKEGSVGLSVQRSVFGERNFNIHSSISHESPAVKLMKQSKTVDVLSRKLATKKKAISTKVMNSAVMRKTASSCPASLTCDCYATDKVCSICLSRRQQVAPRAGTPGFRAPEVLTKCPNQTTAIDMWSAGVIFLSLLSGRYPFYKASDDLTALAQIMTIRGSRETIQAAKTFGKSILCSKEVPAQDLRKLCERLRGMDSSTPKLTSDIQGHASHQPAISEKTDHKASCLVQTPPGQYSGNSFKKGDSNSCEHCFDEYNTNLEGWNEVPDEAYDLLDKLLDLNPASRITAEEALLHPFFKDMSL
Chain of CDC7 (Q9UBU7 whole entry partner): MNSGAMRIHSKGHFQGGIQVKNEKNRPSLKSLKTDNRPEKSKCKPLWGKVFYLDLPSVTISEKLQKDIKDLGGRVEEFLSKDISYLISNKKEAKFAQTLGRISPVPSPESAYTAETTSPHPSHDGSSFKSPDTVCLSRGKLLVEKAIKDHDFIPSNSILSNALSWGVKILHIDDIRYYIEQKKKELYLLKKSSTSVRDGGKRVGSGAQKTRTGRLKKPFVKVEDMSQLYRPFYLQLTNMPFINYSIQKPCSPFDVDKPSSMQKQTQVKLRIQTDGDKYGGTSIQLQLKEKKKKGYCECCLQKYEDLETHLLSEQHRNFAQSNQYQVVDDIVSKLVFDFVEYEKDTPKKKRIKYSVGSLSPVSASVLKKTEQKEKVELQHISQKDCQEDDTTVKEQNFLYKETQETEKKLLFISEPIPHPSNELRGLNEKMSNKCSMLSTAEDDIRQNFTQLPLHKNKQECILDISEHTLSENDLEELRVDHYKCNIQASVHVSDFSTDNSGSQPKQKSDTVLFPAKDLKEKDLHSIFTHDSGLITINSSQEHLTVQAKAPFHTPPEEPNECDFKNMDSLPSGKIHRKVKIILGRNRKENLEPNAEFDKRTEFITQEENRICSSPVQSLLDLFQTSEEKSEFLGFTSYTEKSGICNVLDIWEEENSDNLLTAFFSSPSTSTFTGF

For `COc1ccc2oc3c(=O)[nH]c([C@@H]4C[C@H](F)CN4)nc3c2c1` [Compound 530, 2-[(2S,4S)-4-fluoropyrrolidin-2-yl]-8-(methyloxy)[1]benzofuro[3,2-d]pyrimidin-4(3H)-one], the pIC50 is greater than 5.00 at CDC7 (setting [2]), greater than 7.00 at CDC7 (setting [3]) and greater than 5.00 in test [1].
Take `COc1ccc(CC(N)c2nc3c(oc4ccc(Br)cc43)c(=O)[nH]2)cc1` (stereo not shown) [Compound 539, 2-{1-amino-2-[4-(methyloxy)phenyl]ethyl}-8-bromo[1]benzofuro[3,2-d]pyrimidin-4(3H)-one]: the negative-log IC50 (pIC50) (at CDC7 (setting [2]); in test [1]) was greater than 5.00 each time.
For `NC(Cc1ccccc1)c1nc2c(oc3ccc(Br)cc32)c(=O)[nH]1` (stereo not shown) [Compound 535, 2-(1-amino-2-phenylethyl)-8-bromo[1]benzofuro[3,2-d]pyrimidin-4(3H)-one], the pIC50 (on CDC7 (setting [2]); in test [1]) was greater than 5.00 in each case.
Take `NC(c1nc2c(oc3ccc(Br)cc32)c(=O)[nH]1)C1CCCCC1` (stereo not shown) [Compound 541, 2-[amino(cyclohexyl)methyl]-8-bromo[1]benzofuro[3,2-d]pyrimidin-4(3H)-one]: the pIC50 at CDC7 (setting [2]) is greater than 5.00; on CDC7 (setting [3]), greater than 7.00; in test [1], greater than 5.00.
Regarding `CN(C)CCCN1CCN(Cc2nc3c(oc4ccc(Br)cc43)c(=O)[nH]2)CC1` [Compound 9, 8-bromo-2-({4-[3-(dimethylamino)propyl]piperazin-1-yl}methyl)[1]benzofuro[3,2-d]pyrimidin-4(3H)-one], the negative-log IC50 (pIC50) (on CDC7 (setting [2]); in test [1]) was greater than 5.00 in each case.
Turning to `O=c1[nH]c([C@@H]2C[C@H](F)CN2)nc2c1oc1ccc(Cl)cc12` [Compound 525, 8-chloro-2-[(2S,4S)-4-fluoropyrrolidin-2-yl][1]benzofuro[3,2-d]pyrimidin-4(3H)-one], the pIC50 on CDC7 (setting [2]) is greater than 5.00; at CDC7 (setting [3]), greater than 7.00; in test [1] it was greater than 5.00.
As to `NC(Cc1ccc(OCc2ccccc2)cc1)c1nc2c(oc3ccc(Br)cc32)c(=O)[nH]1` (stereo not shown) [Compound 536, 2-(1-amino-2-{4-[(phenylmethyl)oxy]phenyl}ethyl)-8-bromo[1]benzofuro[3,2-d]pyrimidin-4(3H)-one], the negative logarithm of the IC50 (pIC50) (on CDC7 (setting [2]); in test [1]) was greater than 5.00 throughout.
As to `O=c1[nH]c(CN2CC(O)C2)nc2c1oc1ccc(Br)cc12` [Compound 183, 8-bromo-2-[(3-hydroxyazetidin-1-yl)methyl][1]benzofuro[3,2-d]pyrimidin-4(3H)-one], the results for the pIC50 at CDC7 (setting [2]) and on CDC7 (setting [3]) were greater than 5.00 and greater than 7.00, respectively.
Regarding `COc1ccc2oc3c(=O)[nH]c(-c4ccccc4Cl)nc3c2c1` [Compound 32, 2-(2-Chlorophenyl)-8-(methyloxy)[1]benzofuro[3,2-d]pyrimidin-4(3H)-one], on CDC7 (setting [2]), the pIC50 was greater than 5.00.
For `O=C(NCCN1CCCCC1)c1ccc(-c2nc3c(oc4ccc(Br)cc43)c(=O)[nH]2)c(Cl)c1` [Compound 383, 4-(8-bromo-4-oxo-3,4-dihydro[1]benzofuro[3,2-d]pyrimidin-2-yl)-3-chloro-N-(2-piperidin-1-ylethyl)benzamide], the pIC50 at CDC7 (setting [2]) is greater than 5.00; on CDC7 (setting [3]), greater than 7.00.
Take `O=c1[nH]c(-c2ccc(CNC3CCNCC3)cc2Cl)nc2c1oc1ccc(Br)cc12` [Compound 387, 8-bromo-2-{2-chloro-4-[(piperidin-4-ylamino)methyl]phenyl}[1]benzofuro[3,2-d]pyrimidin-4(3H)-one]: the negative logarithm of the IC50 (pIC50) at CDC7 (setting [2]) was greater than 5.00.
In the case of `CN1C[C@@H]2C[C@H]1CN2Cc1nc2c(oc3ccc(Br)cc32)c(=O)[nH]1` [Compound 142, 8-bromo-2-{[(1S,4S)-5-methyl-2,5-diazabicyclo[2.2.1]hept-2-yl]methyl}[1]benzofuro[3,2-d]pyrimidin-4(3H)-one], the pIC50 on CDC7 (setting [2]) was greater than 5.00.
Take `O=C(C1CCN(Cc2nc3c(oc4ccc(Br)cc43)c(=O)[nH]2)C1)N1CCC(O)CC1` (stereo not shown) [Compound 272, 8-bromo-2-({3-[(4-hydroxypiperidin-1-yl)carbonyl]pyrrolidin-1-yl}methyl)[1]benzofuro[3,2-d]pyrimidin-4(3H)-one]: the pIC50 (in test [1]; on CK2) was greater than 5.00 in each case.
For the compound `CC(=O)Nc1ccc(-c2nc3c(oc4ccc(Br)cc43)c(=O)[nH]2)cc1` [Compound 80, N-[4-(8-bromo-4-oxo-3,4-dihydro[1]benzofuro[3,2-d]pyrimidin-2-yl)phenyl]acetamide], the pIC50 (in test [1]; on CK2) was greater than 5.00 in each case.
In the case of `O=c1[nH]c(-c2ccccc2Cl)nc2c1oc1ccc(Br)cc12` [Compound 30, 8-Bromo-2-(2-chlorophenyl)[1]benzofuro[3,2-d]pyrimidin-4(3H)-one], on CDC7 (setting [2]), the pIC50 was greater than 5.00.
Regarding `CN(C)CCCC(=O)N1CCC(c2nc3c(oc4ccc(Br)cc43)c(=O)[nH]2)CC1` [Compound 207, 8-bromo-2-{1-[4-(dimethylamino)butanoyl]piperidin-4-yl}[1]benzofuro[3,2-d]pyrimidin-4(3H)-one], the pIC50 (in test [1]; at CK2) was greater than 5.00 in each case.
In the case of `CSc1ccccc1-c1nc2c(oc3ccc(Br)cc32)c(=O)[nH]1` [Compound 88, 8-bromo-2-[2-(methylthio)phenyl][1]benzofuro[3,2-d]pyrimidin-4(3H)-one], the pIC50 (in test [1]; on CK2) was greater than 5.00 each time.
For `CN(C)c1ccc(CNCc2nc3c(oc4ccc(Br)cc43)c(=O)[nH]2)cc1` [Compound 104, 8-bromo-2-[({[4-(dimethylamino)phenyl]methyl}amino)methyl][1]benzofuro[3,2-d]pyrimidin-4(3H)-one], the pIC50 (in test [1]; on CK2) was greater than 5.00 each time.
`COc1ccccc1CNc1ccc2oc3c(=O)[nH]c(CN4CC[C@H](O)C4)nc3c2c1` [Compound 466, 2-{[(3S)-3-hydroxypyrrolidin-1-yl]methyl}-8-({[2-(methyloxy)phenyl]methyl}amino)[1]benzofuro[3,2-d]pyrimidin-4(3H)-one]: the pIC50 (in test [1]; on CK2) was greater than 5.00 in each case.
As to `CN1CCC(N2CCN(c3nc4c(oc5ccc(Br)cc54)c(=O)[nH]3)CC2)CC1` [Compound 228, 8-bromo-2-[4-(1-methylpiperidin-4-yl)piperazin-1-yl][1]benzofuro[3,2-d]pyrimidin-4(3H)-one], the pIC50 (in test [1]; at CK2) was greater than 5.00 throughout.
`CN1C[C@@H]2CC[C@H]1CN2Cc1nc2c(oc3ccc(Br)cc32)c(=O)[nH]1` [Compound 330, 8-bromo-2-{[(1S,4S)-5-methyl-2,5-diazabicyclo[2.2.2]oct-2-yl]methyl}[1]benzofuro[3,2-d]pyrimidin-4(3H)-one]: the pIC50 on CDC7 (setting [2]) is greater than 5.00.
Take `O=c1[nH]c(-c2c(F)cccc2F)nc2c1oc1ccc(Br)cc12` [Compound 70, 8-bromo-2-(2,6-difluorophenyl)[1]benzofuro[3,2-d]pyrimidin-4(3H)-one]: the pIC50 (in test [1]; at CK2) was greater than 5.00 throughout.
As for `O=C(Cc1ccccc1)N1CCC(c2nc3c(oc4ccc(Br)cc43)c(=O)[nH]2)CC1` [Compound 237, 8-bromo-2-[1-(phenylacetyl)piperidin-4-yl][1]benzofuro[3,2-d]pyrimidin-4(3H)-one], the pIC50 (in test [1]; at CK2) was greater than 5.00 in each case.
In the case of `COc1ccc(-c2nc3c(oc4ccc(Br)cc43)c(=O)[nH]2)c(Cl)c1OC` [Compound 68, 8-bromo-2-[2-chloro-3,4-bis(methyloxy)phenyl][1]benzofuro[3,2-d]pyrimidin-4(3H)-one], the pIC50 (in test [1]; on CK2) was greater than 5.00 in each case.

A word on the pIC50: it is −log10 of the IC50, conventionally taken in molar units.
